What was measured:
human fibroblasts = test: DNA content of the fibroblasts; type: cell-based; settings: control = 100; for DNA content after 3 days: 3 days incubation
Experimental: (§1) The DNA content was determined in accordance with the method described by Desaulniers in Toxic. In vitro 12(4), 409-422 (1998). The incubation time of the fibroblasts was in each case 3 days and 6 days. In each case, the average of 4 experiments with triple determination is given.

[1] = system: glucose-6-phosphate dehydrogenase in human fibroblasts; test: G6PDH activity in human fibroblasts (in vitro determination of the enzymatic activity); type: cell-based; settings: control = 100; for G6PDH activity after 3 days: 3 days incubation
Experimental: The G6PDH activity was determined in accordance with the microprocess described by Garidelli de Quincenet in Annual Dermatol. Venereol. 107(12), 1163-1170 (1980). The G6PDH activity was determined in accordance with the process described by Natsuko Okada and Yukio Kitano in: Arch. Dermatol. Res., 271(3): 341-346, 1981 by in vitro determination of the enzymatic activity of the glucose-6-phosphate dehydrogenase in human fibroblasts.
as §1

[2] = conc. 0.00003 % by wt., 6 days incubation

SMILES | DNA content after 3 days (human fibroblasts; conc. 0.005 % by wt.) [rel-%] | G6PDH activity after 3 days ([1]; conc. 0.005 % by wt.) [rel-%] | DNA content after 3 days (human fibroblasts; conc. 0.00003 % by wt.) [rel-%] | DNA content after 6 days (human fibroblasts; [2]) [rel-%] | G6PDH activity after 3 days ([1]; conc. 0.00003 % by wt.) [rel-%] | G6PDH activity after 6 days [1, 2] [rel-%]
COc1cc2c(cc1O)C[C@H]1c3c(cc(O)c(OC)c3-2)CCN1C [Boldin index B3916 (Sigma), Boldin] | 97 | 200 |  |  |  | 
CC1=C(/C=C/C(C)=C/C=C/C(C)=C/C(=O)O)C(C)(C)CCC1 [Retinoic acid] |  |  | 76 | 98 | 134 | 130
CC1=C(/C=C/C(C)=C/C=C/C(C)=C/CO)C(C)(C)CCC1 [Retinol] | 95 | 400 |  |  |  | 
